In article PMC3864238 (Pharmaceutics, 2011):

Legend:
PBMCs [1] = experiment: Cellular association ratio (CAR) of radiolabelled drugs in PBMCs, drug-drug interaction; type: in vitro ADME, human; conditions: for effect of unlabelled drug on CAR of [^3H]-ddI: 1 μM [^3H]-ddI; for effect of unlabelled drug on CAR of [^3H]-ddI / effect of unlabelled drug on CAR of [^3H]-TDF: dI 100 μM; for cellular association ratio (CAR): 1 μM labelled drug, 30–45 min, no interacting drug, mean ± S.D.; for cellular association ratio (CAR) / effect of incubation at 4 °C on cell-associated concentration: PBMCs; for effect of incubation at 4 °C on cell-associated concentration: 4 °C vs 37 °C; for effect of unlabelled drug on CAR of [^3H]-TDF: 1 μM [^3H]-TDF
Experimental: 11 PBMC samples were isolated from blood buffy coats using Lymphoprep (Alexis-sheild, Oslo, Norway), following the manufacturer's instructions. An aliquot of the PBMC samples were cryopreserved in fetal calf serum containing 10% dimethyl sulphoxide for batch analysis of membrane proteins by flow cytometry.
We also used 50 μM dipyridamole, 100 μM of deoxycytidine (dC), deoxyinosine (dI) and deoxyguanosine (dG) as positive controls to inhibit the transport of the drugs. The concentrations used of these inhibitors were based on previous observations. […] In a limited number of PBMC samples, we investigated the effects of two drug combinations on the uptake of labelled compounds as described above. The incubations were terminated by centrifugation (15,000 g, 1 min at 0 °C). A-100 μL aliquot of the supernatant was counted for radioactivity and the cell pellets were washed three times in ice-cold phosphate buffered saline followed by rapid centrifugation before the pellets were solubilised in 100 μL of distilled water as described previously and counted for radioactivity.

[2] = test system: CEM, CEMVBL (P-gp-overexpressing), CEME1000 (MRP1-overexpressing) and U937 cells; experiment: Preliminary transport experiments in cell lines; type: in vitro ADME; conditions: data not shown; for concentration-dependent effect of unlabelled drug on accumulation of the labelled drugs: 0-100 μM unlabelled drug, CEM, CEMVBL, CEME1000 and U937 cells
P-gp [3] = conditions: cited from earlier work
MRP = test system: MRP; set-up: method as in PMID 17328866, PMID 17202245, PMID 19075072; conditions: cited from earlier work
BCRP = test system: BCRP; set-up: method as in PMID 17202245; conditions: cited from earlier work
PBMCs [4] = experiment: Cell fractionation: membrane-bound and intracellular radiolabelled drug in PBMCs; type: in vitro ADME, human; conditions: 50 μM ABC
Experimental: In a separate experiment, cells were incubated with the tritiated compounds ([^3H]-3TC, -ddI and -TDF) in the absence or presence of 50 μM ABC as described. The assay was terminated by rapid centrifugation in a chilled microcentrifuge and the cell pellets were washed three times in ice-cold PBS as described, followed by three times of rapid freezing in liquid nitrogen and thawing at room temperature. The suspension was layered on top of 1 mL of ice-cold 42% percoll solution containing 0.25 M sucrose, 1.5 mM magnesium chloride, pH 7.1, and centrifuged (12,000 g, 30 min at 4 °C). After centrifugation, the radioactivity in the clear supernatant (assumed as intracellular drug) and in the pellet/debris, harvested from the bottom of the gradient (assumed as membrane-bound drug) were determined by scintillation counting.

P-gp [5] = test system: P-gp; set-up: method as in PMID 11145192; conditions: cited from earlier work
[6] = Octanol-saline partition coefficient; type: physicochemical; conditions: octanol/phosphate buffered saline; radiolabelled drug 10-31 nM
Experimental: Briefly, an equal volume of octanol and phosphate buffered saline (PBS) were presaturated by vigorously vortexing them for 5 min. The suspension was allowed to settle for 10 min before the upper saturated octanol layer was carefully removed and stored in a separate tube. […] Then 540 μL aliquots of each compound were added to an equal volume of presaturated octanol and vortexed for 5 min. The samples were centrifuged (1000 g for 5 min). The concentrations of radiolabelled drug in a volume of the octanol (upper layer) and in a similar volume of saline (lower layer) were measured using scintillation counting. The octanol-saline partition coefficient was determined as a ratio of radiolabelled drug in the octanol phase to radiolabelled drug concentration in the saline phase.

[7] = test system: guinea-pig brain perfusion and choroid plexus models; conditions: cited from earlier work
[8] = unlabelled drugs 50 μM, dipyridamole 50 μM

| concentration-dependent effect of unlabelled drug on accumulation of the labelled drugs [2] | intracellular drug concentration, effect of ABC (PBMCs [4]) | membrane-bound drug concentration, effect of ABC (PBMCs [4]) | Partition coefficient (mean ± SD) [6] | Structure (SMILES) | effect of incubation at 4 °C on cell-associated concentration (PBMCs [1]) | inhibition of MRP activity (MRP) | also measured |
| --- | --- | --- | --- | --- | --- | --- | --- |
| no concentration-dependent effects | unaffected | unaffected | – | CC(C)OC(=O)OCOP(=O)(CO[C@H](C)Cn1cnc2c(N)ncnc21)OCOC(=O)OC(C)C.O=C(O)/C=C/C(=O)O [TDF, Tenofovir disoproxil fumarate] | significantly (P < 0.001) reduced at 4 °C | inhibited | effect of unlabelled drug on CAR of [^3H]-3TC (PBMCs [1]; 1 μM [^3H]-3TC, unlabelled drugs 50 μM, dipyridamole 50 μM, dC 100 μM): significantly (P < 0.05) reduced uptake; effect of unlabelled drug on CAR of [^3H]-ddI (PBMCs [1]; [8]): no effect; cellular association ratio (CAR) (PBMCs [1]): 2.20 ± 0.29; inhibition of P-gp activity (P-gp [3]): inhibited; BCRP inhibitory effect (BCRP): devoid of any BCRP inhibitory effect |
| – | – | – | – | OC[C@H]1O[C@@H](n2cnc3c(O)ncnc32)C[C@@H]1O [dI, deoxyinosine] | – | – | effect of unlabelled drug on CAR of [^3H]-TDF (PBMCs [1]; [8]): unaffected |
| no concentration-dependent effects | unaffected | significantly (P < 0.05) decreased | 0.117 ± 0.0049 | Nc1ccn([C@@H]2CS[C@H](CO)O2)c(=O)n1 [3TC, lamivudine] | significantly (P < 0.001) reduced at 4 °C | inhibited | P-gp substrate (P-gp [5]): not a substrate; P-gp substrate ([2]; preliminary studies): not a P-gp substrate |
| no concentration-dependent effects | – | – | 7.065 ± 0.44 | Nc1nc(NC2CC2)c2ncn([C@H]3C=C[C@@H](CO)C3)c2n1 [ABC, abacavir] | did not affect | inhibited | effect on intracellular accumulation of [^3H]-ddI [7]: increased; effect of unlabelled drug on CAR of [^3H]-ddI (PBMCs [1]; [8]): no effect; cellular association ratio (CAR) (PBMCs [1]): 7.62 ± 1.32; inhibition of P-gp activity (P-gp [3]): inhibited; BCRP inhibitory effect (BCRP): inhibits |
| – | significantly (P < 0.05) decreased | unaffected | – | O=c1[nH]cnc2c1ncn2[C@H]1CC[C@@H](CO)O1 [ddI, didanosine] | significantly (P < 0.001) reduced at 4 °C | – | – |
| – | – | – | – | OCCN(CCO)c1nc(N2CCCCC2)c2nc(N(CCO)CCO)nc(N3CCCCC3)c2n1 [dipyridamole] | – | – | effect of unlabelled drug on CAR of [^3H]-TDF (PBMCs [1]; [8]): unaffected |
| – | – | – | 0.0022 ± 0.0001 | OC[C@@H](O)[C@@H](O)[C@H](O)[C@H](O)CO [[^14C]-Mannitol, mannitol] | – | – | – |
